Assay results taken from patent US9096591B2, “Tetracyclic compounds” (Medivation Technologies, Inc., priority 2007, dated 2015).

Legend:
[1] = target: T1, human recombinant histamine H1 receptor (Homo sapiens, UniProt P35367); assay: Histamine H1 radioligand binding ([3H]Pyrilamine); settings: compounds screened at 1 μM; read-out: Inhibition of ligand binding, Hist. H1 (percent inhibition of specific binding)
T1 construct: expressed in transfected cells; host or cells: CHO cells
Outline: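 CHO-expressed receptor in modified Tris-HCl buffer (50 mM, pH 7.4; 2 mM MgCl2, 100 mM NaCl, 250 mM sucrose); bound ligand measured after filtration and washing.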

[2] = target: T2, human recombinant adrenergic α2B receptor (Homo sapiens, UniProt P18089); assay: Adrenergic α2B radioligand binding ([3H]Rauwolscine); settings: compounds screened at 1 μM; read-out: Inhibition of ligand binding, Adren. alpha2B (percent inhibition of specific binding)
T2 construct: expressed in transfected cells; host or cells: CHO-K1 cells
T2 sequence (P18089 1-450): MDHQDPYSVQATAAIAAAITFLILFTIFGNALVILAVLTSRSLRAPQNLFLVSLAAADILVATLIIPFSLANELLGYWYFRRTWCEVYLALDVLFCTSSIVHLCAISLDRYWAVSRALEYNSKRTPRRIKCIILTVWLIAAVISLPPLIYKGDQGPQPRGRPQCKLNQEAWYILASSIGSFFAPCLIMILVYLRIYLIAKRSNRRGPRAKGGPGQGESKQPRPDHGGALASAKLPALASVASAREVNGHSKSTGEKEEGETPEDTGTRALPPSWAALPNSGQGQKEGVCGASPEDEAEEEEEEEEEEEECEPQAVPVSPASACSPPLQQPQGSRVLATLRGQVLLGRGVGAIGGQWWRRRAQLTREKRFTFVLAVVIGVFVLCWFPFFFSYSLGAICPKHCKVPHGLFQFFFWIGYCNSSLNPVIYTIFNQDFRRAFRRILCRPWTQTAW
Outline: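 Incubation ran 60 minutes at 25 °C in modified Tris-HCl buffer (50 mM, pH 7.4, 12.5 mM MgCl2, 1 mM EDTA, 0.2% BSA) using CHO-K1-expressed human receptor.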

[3] = target: T3, human recombinant adrenergic α2A receptor (Homo sapiens, UniProt P08913); assay: Adrenergic α2A radioligand binding ([3H]MK-912); settings: compounds screened at 1 μM; read-out: Inhibition of ligand binding, Adren. alpha2A (percent inhibition of specific binding)
T3 construct: expressed in transfected cells; host or cells: insect Sf9 cells
T3 sequence (P08913 1-465): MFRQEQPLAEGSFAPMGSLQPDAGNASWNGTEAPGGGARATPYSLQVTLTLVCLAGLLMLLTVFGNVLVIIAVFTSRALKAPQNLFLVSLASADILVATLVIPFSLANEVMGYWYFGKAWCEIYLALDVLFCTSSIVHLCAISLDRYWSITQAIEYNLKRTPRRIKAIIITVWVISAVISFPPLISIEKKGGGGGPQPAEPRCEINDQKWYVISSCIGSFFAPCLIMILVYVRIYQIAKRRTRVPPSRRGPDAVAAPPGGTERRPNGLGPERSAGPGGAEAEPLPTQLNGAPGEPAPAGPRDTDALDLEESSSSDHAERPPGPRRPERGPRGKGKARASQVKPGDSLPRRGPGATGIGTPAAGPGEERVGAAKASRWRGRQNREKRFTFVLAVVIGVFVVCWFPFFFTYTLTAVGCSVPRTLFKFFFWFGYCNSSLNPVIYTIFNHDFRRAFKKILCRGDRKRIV
Outline: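 Membranes from Sf9 cells expressing the receptor were incubated with 1 nM [3H]MK-912 for 60 minutes at 25° C in 50 mM Tris-HCl pH 7.4, 12.5 mM MgCl2, 2 mM EDTA. 10 μM WB-4101 defined non-specific binding. Values are percent inhibition of specific bound radioactivity after filtration.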

[4] = target: T4, human recombinant serotonin (5-Hydroxytryptamine) 5-HT6 receptor (Homo sapiens, UniProt P50406); assay: Serotonin 5-HT6 radioligand binding ([3H]LSD); settings: compounds screened at 1 μM; read-out: Inhibition of ligand binding, Ser. 5-HT6 (percent inhibition of specific binding)
T4 construct: expressed in transfected cells; host or cells: human HeLa cells
Excerpt: Receptor proteins were filtered and washed, the filters were then counted to determine [3H]LSD specifically bound. […] Biochemical assay results are presented as the percent inhibition of specific binding in Table 6.

[5] = target: T5, human recombinant dopamine D2L receptor (Homo sapiens, UniProt P14416); assay: Dopamine D2L radioligand binding ([3H]Spiperone); settings: compounds screened at 1 μM; read-out: Inhibition of ligand binding, Dop. D2L (percent inhibition of specific binding)
T5 construct: expressed in transfected cells; host or cells: CHO cells
Method: Non-specific binding was estimated in the presence of 10 μM Haloperidol. Receptor proteins were filtered and washed, the filters were then counted to determine [^3H]Spiperone specifically bound. […] Biochemical assay results are presented as the percent inhibition of specific binding in Table 6.

T4 sequence (P50406 whole entry): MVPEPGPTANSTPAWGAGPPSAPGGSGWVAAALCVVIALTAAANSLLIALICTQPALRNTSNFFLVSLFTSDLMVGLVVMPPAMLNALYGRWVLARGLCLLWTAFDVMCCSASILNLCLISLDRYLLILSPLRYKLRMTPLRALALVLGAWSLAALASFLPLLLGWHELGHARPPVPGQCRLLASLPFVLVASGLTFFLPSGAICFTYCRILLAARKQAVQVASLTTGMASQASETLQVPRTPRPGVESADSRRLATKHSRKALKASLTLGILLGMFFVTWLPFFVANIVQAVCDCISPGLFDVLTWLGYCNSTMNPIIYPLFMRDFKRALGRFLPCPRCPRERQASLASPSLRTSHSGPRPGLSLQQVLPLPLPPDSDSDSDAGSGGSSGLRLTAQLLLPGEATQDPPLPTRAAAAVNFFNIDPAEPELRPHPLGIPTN
T5 sequence (P14416 whole entry): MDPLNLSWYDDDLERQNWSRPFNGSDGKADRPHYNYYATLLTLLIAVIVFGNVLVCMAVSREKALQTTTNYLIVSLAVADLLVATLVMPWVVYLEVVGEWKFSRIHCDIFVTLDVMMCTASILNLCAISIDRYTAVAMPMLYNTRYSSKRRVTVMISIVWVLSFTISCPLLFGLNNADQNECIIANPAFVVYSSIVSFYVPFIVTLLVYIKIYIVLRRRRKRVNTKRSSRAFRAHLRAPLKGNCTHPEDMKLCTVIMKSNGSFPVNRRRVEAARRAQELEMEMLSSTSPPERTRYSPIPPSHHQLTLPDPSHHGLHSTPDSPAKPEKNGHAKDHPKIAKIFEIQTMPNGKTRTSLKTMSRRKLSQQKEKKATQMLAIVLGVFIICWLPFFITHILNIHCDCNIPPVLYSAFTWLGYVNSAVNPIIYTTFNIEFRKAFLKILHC
T1 sequence (P35367 whole entry): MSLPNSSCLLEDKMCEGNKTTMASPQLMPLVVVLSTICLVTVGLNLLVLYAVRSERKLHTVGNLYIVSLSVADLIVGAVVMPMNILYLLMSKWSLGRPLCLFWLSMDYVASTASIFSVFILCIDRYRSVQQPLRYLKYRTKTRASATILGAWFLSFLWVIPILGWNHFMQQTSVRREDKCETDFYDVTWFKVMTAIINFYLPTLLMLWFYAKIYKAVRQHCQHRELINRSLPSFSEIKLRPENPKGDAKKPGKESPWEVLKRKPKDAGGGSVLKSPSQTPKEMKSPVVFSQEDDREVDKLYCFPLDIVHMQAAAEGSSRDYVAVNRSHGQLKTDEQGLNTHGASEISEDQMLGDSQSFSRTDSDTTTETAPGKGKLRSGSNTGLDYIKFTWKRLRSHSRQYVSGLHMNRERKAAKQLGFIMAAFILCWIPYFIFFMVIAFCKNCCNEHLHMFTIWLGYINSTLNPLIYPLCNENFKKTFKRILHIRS

CN1CCc2c(c3cc(Cl)ccc3n2CCc2noc(-c3ccccc3)n2)C1 [Compound C4-6]
inhibition at 1 µM [1]: 100% | inhibition at 1 µM [2]: 94% | inhibition at 1 µM [3]: 96% | inhibition at 1 µM [4]: 105% | inhibition at 1 µM [5]: 36%
